# Measured values: BindingDB's records for doi:10.7270/Q269721H (Nmmlsc, 2010)
# Biological target: Guanine nucleotide-binding protein G(o) subunit alpha (Homo sapiens, UniProt P09471)
# Test: RGS7-Galphao interaction regulators, SAR follow-up, multiplexed assay, additional SAR round (AID 2826)
# Guanine nucleotide-binding protein G(o) subunit alpha, sequence (P09471 whole entry): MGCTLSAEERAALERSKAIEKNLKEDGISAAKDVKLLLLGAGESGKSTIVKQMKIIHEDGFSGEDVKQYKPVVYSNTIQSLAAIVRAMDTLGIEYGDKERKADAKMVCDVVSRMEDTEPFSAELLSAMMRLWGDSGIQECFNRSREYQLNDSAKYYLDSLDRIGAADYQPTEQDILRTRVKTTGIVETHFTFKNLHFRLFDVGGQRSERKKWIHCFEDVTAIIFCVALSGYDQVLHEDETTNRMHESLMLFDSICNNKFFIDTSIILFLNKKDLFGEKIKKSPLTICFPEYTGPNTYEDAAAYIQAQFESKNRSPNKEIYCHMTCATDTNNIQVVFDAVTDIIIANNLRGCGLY
row,EC50,SMILES
1,> 30 µM,Cc1ccc2c(Cl)c(C(=O)NCCCN3CCOCC3)sc2c1 [KUC103874N]
2,> 30 µM,O=C(NCCCn1ccnc1)c1sc2cc([N+](=O)[O-])ccc2c1Cl [3-chloro-N-[3-(1-imidazolyl)propyl]-6-nitro-1-benzothiophene-2-carboxamide]
3,> 30 µM,NC(=O)c1sc2cc([N+](=O)[O-])ccc2c1Cl [KSC-1-100]
4,> 30 µM,O=C(c1sc2cc([N+](=O)[O-])ccc2c1Cl)N1CCNCC1
5,> 30 µM,O=C(NCCCN1CCOCC1)c1sc2cc([N+](=O)[O-])ccc2c1Cl [3-chloranyl-N-(3-morpholin-4-ylpropyl)-6-nitro-1-benzothiophene-2-carboxamide]
